Experimental data published in PMC3914206.

Key:
panel of 442 kinases [1] = biological target: T1, panel of 442 kinases (Homo sapiens, UniProt P07949, V804L); assay type: binding; conditions: Compound Concentration 10 µM
T1 construct: purchased KINOMEscan
Description: (§1) We assessed the selectivity of members of this scaffold using the KINOMEscan methodology across a near comprehensive panel of 442 kinases [[18,27]].

panel of 442 kinases [2] = biological target: T2, panel of 442 kinases (Homo sapiens, UniProt P36888); assay type: binding; conditions: Compound Concentration 10 µM
T2 construct: purchased KINOMEscan
T2 sequence (P36888 27-993): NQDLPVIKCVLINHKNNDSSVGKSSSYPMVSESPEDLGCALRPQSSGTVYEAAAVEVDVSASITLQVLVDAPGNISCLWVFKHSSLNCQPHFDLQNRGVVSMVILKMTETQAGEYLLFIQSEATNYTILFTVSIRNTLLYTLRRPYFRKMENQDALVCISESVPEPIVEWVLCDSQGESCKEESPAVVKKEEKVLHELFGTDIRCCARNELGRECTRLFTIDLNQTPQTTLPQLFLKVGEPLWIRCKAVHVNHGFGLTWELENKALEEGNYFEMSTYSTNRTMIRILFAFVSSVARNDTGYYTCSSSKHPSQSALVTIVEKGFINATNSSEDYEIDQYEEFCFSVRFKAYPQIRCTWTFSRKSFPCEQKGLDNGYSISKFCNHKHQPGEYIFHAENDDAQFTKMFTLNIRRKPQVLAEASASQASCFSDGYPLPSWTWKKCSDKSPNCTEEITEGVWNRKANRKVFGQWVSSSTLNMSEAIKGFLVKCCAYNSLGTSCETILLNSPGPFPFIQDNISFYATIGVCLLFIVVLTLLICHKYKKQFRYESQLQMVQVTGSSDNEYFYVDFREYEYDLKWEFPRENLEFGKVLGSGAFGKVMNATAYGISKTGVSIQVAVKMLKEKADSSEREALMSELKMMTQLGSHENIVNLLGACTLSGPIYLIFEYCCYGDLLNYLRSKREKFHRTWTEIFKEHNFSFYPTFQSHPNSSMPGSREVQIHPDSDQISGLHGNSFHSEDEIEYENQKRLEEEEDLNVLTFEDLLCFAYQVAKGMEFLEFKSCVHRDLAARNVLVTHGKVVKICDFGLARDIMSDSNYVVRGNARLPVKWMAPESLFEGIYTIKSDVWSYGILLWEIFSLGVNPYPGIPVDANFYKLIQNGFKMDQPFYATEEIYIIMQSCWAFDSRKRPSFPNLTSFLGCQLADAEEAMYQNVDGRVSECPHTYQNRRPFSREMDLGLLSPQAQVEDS
Description: as §1

T1 sequence (P07949 29-1114 V804L): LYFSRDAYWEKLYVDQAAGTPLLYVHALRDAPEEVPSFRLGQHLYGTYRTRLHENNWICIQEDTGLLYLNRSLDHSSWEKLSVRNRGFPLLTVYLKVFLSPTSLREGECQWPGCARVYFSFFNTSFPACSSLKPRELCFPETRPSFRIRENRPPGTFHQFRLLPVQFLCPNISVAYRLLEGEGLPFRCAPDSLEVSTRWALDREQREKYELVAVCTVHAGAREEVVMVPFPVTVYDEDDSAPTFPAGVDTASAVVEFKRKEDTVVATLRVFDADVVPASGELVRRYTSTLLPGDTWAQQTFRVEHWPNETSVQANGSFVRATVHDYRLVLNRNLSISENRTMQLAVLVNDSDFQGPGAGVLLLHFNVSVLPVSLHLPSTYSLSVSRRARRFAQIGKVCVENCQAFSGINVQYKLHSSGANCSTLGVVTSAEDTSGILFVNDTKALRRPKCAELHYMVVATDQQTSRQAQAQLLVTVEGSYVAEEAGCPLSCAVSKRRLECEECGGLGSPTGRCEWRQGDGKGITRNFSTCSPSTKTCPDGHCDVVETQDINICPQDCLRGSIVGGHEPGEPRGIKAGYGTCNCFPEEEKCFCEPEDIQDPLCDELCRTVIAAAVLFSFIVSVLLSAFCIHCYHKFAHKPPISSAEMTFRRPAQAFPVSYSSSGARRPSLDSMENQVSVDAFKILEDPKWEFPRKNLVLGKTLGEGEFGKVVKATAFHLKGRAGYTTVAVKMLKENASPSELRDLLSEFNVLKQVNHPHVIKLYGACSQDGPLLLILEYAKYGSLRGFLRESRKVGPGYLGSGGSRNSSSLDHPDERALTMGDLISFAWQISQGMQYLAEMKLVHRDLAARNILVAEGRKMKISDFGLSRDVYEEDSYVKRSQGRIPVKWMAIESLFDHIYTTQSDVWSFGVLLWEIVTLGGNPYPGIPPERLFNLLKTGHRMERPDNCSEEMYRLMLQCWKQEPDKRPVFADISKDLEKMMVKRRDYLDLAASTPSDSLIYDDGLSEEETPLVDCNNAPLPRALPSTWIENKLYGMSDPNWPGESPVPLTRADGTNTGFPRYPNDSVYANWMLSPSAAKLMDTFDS

SMILES	KINOMEscan: RET(V804L) (panel of 442 kinases [1])	KINOMEscan: FLT3 (panel of 442 kinases [2])
COc1cc(C(=O)N2CCC(N3CCN(C)CC3)CC2)ccc1Nc1ncc2c(n1)N(C)c1ccccc1C(=O)N2C [15 (LRRK2-IN-1)]	89	100
COc1cc(C(=O)N2CCC(N3CCN(C)CC3)CC2)ccc1Nc1ncc2c(n1)N1CCc3cccc(c31)C(=O)N2C [Compound 24]	77	–
COc1cc(C(=O)N2CCC(N3CCN(C)CC3)CC2)ccc1Nc1ncc2c(n1)N(C1CCCC1)c1ccccc1C(=O)N2C [Compound 25, 11-cyclopentyl-2-((2-methoxy-4-(4-(4-methylpiperazin-1-yl)piperidine-1-carbonyl)phenyl)amino)-5-methyl-5H-benzo[e]pyrimido[5,4-b][1,4]diazepin-6(11H)-one]	100	100
CCOc1cc(C(=O)N2CCC(N3CCN(C)CC3)CC2)ccc1Nc1ncc2c(n1)N(C1CCCC1)c1ccccc1C(=O)N2C [Compound 26]	100	100
